This passage reports koff, kon and Kd results from paper PMC2736342 (Biochemistry, 2009).

Read-outs that look alike come from different tables or passages of the source. Ends that are not written are not given here. Peptide text beside a SMILES is read from it. * marks the point of attachment. Biotin = O=C1N[C@H]2[C@H](CS[C@H]2CCCCC(=O)*)N1

One assay deals with D328R Gαi GDP (Rattus norvegicus, UniProt P10824, D328R/INS119HHHHHH). The assay is described as follows: SPR binding to immobilized peptide, D328R GDP. Conditions: pH 7.4. On the technique in general: Surface plasmon resonance follows binding to a sensor surface in real time, without labels.
The target of a further assay is I56C/Q333C Gαi GDP (Rattus norvegicus, UniProt P10824, I56C/INS119HHHHHH/Q333C). The assay is described as follows: SPR binding to immobilized peptide, I56C/Q333C GDP. Conditions: pH 7.4.
The next assay has as its target WT Gαi GDP (Rattus norvegicus, UniProt P10824, INS119HHHHHH). As to the kind of experiment: SPR binding to immobilized peptide, wild-type GDP. The conditions noted are these: pH 7.4.
Assay [1] deals with I56C/Q333C Gαi GDP•AlF4^− (Rattus norvegicus, UniProt P10824, I56C/INS119HHHHHH/Q333C). The assay is described as follows: SPR binding to immobilized peptide, I56C/Q333C GDP-AlF4^−. The conditions noted are these: pH 7.4.
The next assay has as its target WT Gαi GDP •AlF4^− (Rattus norvegicus, UniProt P10824, INS119HHHHHH). The assay is described as follows: SPR binding to immobilized peptide, wild-type GDP-AlF4^−. Conditions: pH 7.4.
The target of the next assay is D328R Gαi GDP•AlF4^− (Rattus norvegicus, UniProt P10824, D328R/INS119HHHHHH). The assay is described as follows: SPR binding to immobilized peptide, D328R GDP-AlF4^−. Conditions: pH 7.4.
In assay [2] the target is T1, D328R Gαi1 subunit (rat, UniProt P10824 2-354, D328R). As to the kind of experiment: SPR.
Assay [3] addresses T2, wild-type Gαi1 subunit (rat, UniProt P10824 2-354). As to the kind of experiment: SPR.
The target of assay [4] is T1, D328R Gαi1 subunit. The assay is described as follows: SPR. The source holds these as a separate data set.
Assay [5] concerns the target T2, wild-type Gαi1 subunit. The assay is described as follows: SPR. This is another data set of the same source.

For orientation: koff means the rate constant with which the complex falls apart. A higher koff goes with fast dissociation. As usually defined, the kon is the second-order rate constant of association. As usually defined, the Kd is the concentration at which binding is half-saturated.

For `CSCC[C@H](NC(=O)[C@H](CC(C)C)NC(=O)[C@H](Cc1ccccc1)NC(=O)[C@H](CC(=O)O)NC(=O)[C@H](Cc1ccc(O)cc1)NC(=O)[C@H](Cc1c[nH]c2ccccc12)NC(=O)[C@@H](NC(=O)[C@@H](NC(=O)[C@H](CCCNC(=N)N)NC(=O)[C@@H](N)CO)C(C)C)[C@@H](C)O)C(=O)N[C@@H](CCC(=O)O)C(=O)N[C@@H](CC(=O)O)C(=O)N[C@H](C(=O)N[C@@H](CCCCN)C(=O)N[C@@H](CO)C(=O)N[C@@H](CCCNC(=N)N)C(=O)O)[C@@H](C)O` [KB-752] (H-SRVTWYDFLMEDTKSR-OH), the koff at D328R Gαi GDP worked out at 0.01 ± 0.001 s⁻¹; at I56C/Q333C Gαi GDP, 0.22 ± 0.03 s⁻¹; on WT Gαi GDP it was 0.06 ± 0.01 s⁻¹. Further, the kon on D328R Gαi GDP worked out at 8560 M⁻¹ s⁻¹; at I56C/Q333C Gαi GDP, 7750 M⁻¹ s⁻¹; at WT Gαi GDP, 21100 M⁻¹ s⁻¹.
Consider `CC[C@H](C)[C@H](NC(=O)CNC(=O)[C@H](Cc1c[nH]cn1)NC(=O)[C@H](Cc1ccc(O)cc1)NC(=O)[C@H](Cc1ccc(O)cc1)NC(=O)CNC(=O)[C@H](CCCNC(=N)N)NC(=O)[C@H](CO)NC(=O)[C@@H](N)CO)C(=O)N[C@@H](Cc1c[nH]c2ccccc12)C(=O)N[C@H](C(=O)NCC(=O)N[C@@H](CCC(=O)O)C(=O)N[C@@H](CCC(=O)O)C(=O)NCC(=O)N[C@@H](CCCNC(=N)N)C(=O)N[C@@H](CC(C)C)C(=O)N[C@@H](CO)C(=O)N[C@@H](CCCNC(=N)N)C(=O)O)C(C)C` [KB-1753] (H-SSRGYYHGIWVGEEGRLSR-OH), for which the off-rate (koff) turned out to be 0.006 ± 0.0008 s⁻¹ in [1], 0.025 ± 0.001 s⁻¹ on WT Gαi GDP •AlF4^− and 0.003 ± 0.0004 s⁻¹ at D328R Gαi GDP•AlF4^−. Besides, the kon was 16800 M⁻¹ s⁻¹ in assay [1], 22900 M⁻¹ s⁻¹ on WT Gαi GDP •AlF4^− and 8810 M⁻¹ s⁻¹ at D328R Gαi GDP•AlF4^−.
Biotin-SRVTWYDFLMEDTKSR [peptide KB-752]: the dissociation constant Kd with D328R Gαi1 subunit [2] worked out at 1280 ± 20 nM; with wild-type Gαi1 subunit [3] it was 2840 ± 810 nM.
On to Biotin-SSRGYYHGIWVGEEGRLSR [peptide KB-1753], for which the Kd with D328R Gαi1 subunit [4] is 260 ± 40 nM; in the assay with wild-type Gαi1 subunit [5], 1100 ± 100 nM.
